Assay results published in article PMC10057480, “Expanding the Library of 1,2,4-Oxadiazole Derivatives: Discovery of New Farnesoid X Receptor (FXR) Antagonists/Pregnane X Receptor (PXR) Agonists” (Molecules, 2023).
Where “and” joins values, the source holds several entries; their conditions need not be identical. Equal values may be shown once.

Assays:
FXR = target: T1, FXR (Homo sapiens, UniProt Q96RI1); assay: FXR luciferase reporter transactivation assay (antagonism) on HepG2 cells; format: cell-based; settings: at least three experiments; for FXR Antagonism Eff (%): HepG2 transactivation, compounds at 50 μM, percent inhibition of transactivation set at 100%, mean ± SD; for IC50: transactivation assay, concentration-response, mean ± SEM
T1 construct: expressed in transfected cells; host or cells: HepG2
T1 sequence (Q96RI1 1-486): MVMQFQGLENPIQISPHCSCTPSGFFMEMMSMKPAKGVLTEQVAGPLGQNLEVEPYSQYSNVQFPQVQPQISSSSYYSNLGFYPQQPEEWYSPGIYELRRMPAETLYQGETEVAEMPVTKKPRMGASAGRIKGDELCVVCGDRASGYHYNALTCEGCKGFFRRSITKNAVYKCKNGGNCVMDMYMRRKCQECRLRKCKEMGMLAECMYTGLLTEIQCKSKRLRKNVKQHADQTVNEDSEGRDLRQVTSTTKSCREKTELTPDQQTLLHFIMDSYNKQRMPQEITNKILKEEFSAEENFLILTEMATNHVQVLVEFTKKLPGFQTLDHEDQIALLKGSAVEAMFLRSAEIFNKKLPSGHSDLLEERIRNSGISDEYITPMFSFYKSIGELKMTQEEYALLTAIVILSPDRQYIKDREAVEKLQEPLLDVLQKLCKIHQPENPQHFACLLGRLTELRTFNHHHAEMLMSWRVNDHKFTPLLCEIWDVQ
Description: The antagonistic activity on FXR was investigated using HepG2 cells transfected with 100 ng of pSG5-FXR and pSG5-RXR, 200 ng of the reporter vector p(hsp27)-TK-LUC containing the FXR response element, and 100 ng of the pGL4.70 vector encoding the human Renilla gene used as a transfection control. […] In another experimental setting, HepG2 cells were transfected using 100 ng of pSG5-PXR, 100 ng of pSG5-RXR, and 100 ng of pGL4.70, along with the reporter vector pGL3(henance)PXRE. At 24 h post-transfection, cells were stimulated with rifaximin 10 μM (as a positive control) or compounds 2–11 (10 μM). The specificity of compounds 5 and 11 versus FXR and PXR was tested using HepG2 cells transiently transfected with 200 ng of the reporter vector p(UAS)5XTKLuc, 100 ng of a vector containing the ligand binding domain of LXRα or LXRβand 100 ng of pGL4.70, a vector encoding the human Renilla gene. At 24 h post-transfection, cells were stimulated for 18 h with GW3965 (5 μM), compounds 5 and 11 (10 μM), and the combination of GW3965 plus 5 or 11 (50 μM). Cellular lysate was assayed for luciferase and Renilla activities after 18 h using the Dual-Luciferase Reporter assay system (E1980, Promega, Madison, WI, USA). The activity of luciferase was measured using the Glomax 20/20 luminometer (Promega, Madison, WI, USA) and normalized with Renilla activities.

[1] = Metabolic stability in human liver S9 fraction; format: in vitro ADME; settings: pH 7.4, 1 μM compound, 37 °C
Description: Human liver S9 fraction (Sigma-Aldrich, St. Louis, MO, USA) was used. All incubations were performed in duplicate in a thermoblock (Dlab dry bath HB 120-S) at 37 °C. The incubation mixtures contained 1 μM compound with 0.1% DMSO used as a vehicle, human liver S9 fraction (0.3 mg of protein per mL), 5 mM taurine, 5 mM glycine, 5 mM glucose 6-phosphate, 5 mM GSH, 1 mM NADPH, 1 mM ATP, 0.4 mM CoA, 0.4 mM UDPGA, 0.1 mM PAPS, and 0.4 U·mL^−1 glucose 6-phosphate dehydrogenase. All the cofactors were dissolved in a 50 mM potassium phosphate buffer (pH 7.4), containing 5 mM MgCl2, for a final volume of 0.25 mL. Aliquots of 25 µL were removed at 0, 5, 15, 30, 45, 60, and 90 min after S9 addition, and the reaction was stopped by adding 100 μL of ice-cold MeOH. The samples were centrifuged for 10 min at 10,000 rpm, and the supernatants were transferred into vials for LC-MS/MS analysis. The slope of the linear regression of the curve obtained by reporting the natural logarithm of compound area versus incubation time (−k) was used in the conversion to in vitro t1/2 values, calculated as t1/2 = −ln(2)/k. In vitro intrinsic clearance (Clint expressed as μL/min/mg) was obtained by first calculating V using the formula: V = volume of reaction (μL)/protein of liver microsomes (mg); intrinsic clearance was then calculated as: Clint = (V × ln2)/t1/2.

[2] = tested on: Human-CaCo2 cells stimulated with TNFα; assay: qPCR of PXR and inflammatory cytokines in TNFα-stimulated CaCo2 cells; format: cell-based; settings: TNFα 100 ng/mL plus compound 10 μM
Description: HepG2 and CaCo2 cell lines, obtained from ATCC, were routinely cultured in Eagle’s MEM and high-glucose DMEM, respectively, supplemented with 10% FBS, 1% glutamine, and penicillin/streptomycin. For in vitro experiments, HepG2 (2 × 106) cells were stimulated with 6-ECDCA at a concentration of 10 µM alone or in combination with compound 5 or 11, and CaCo2 cells were exposed to TNFα (100 ng/mL) alone or in combination with rifaximin, compound 5, or 11.
Total RNA was isolated from the HepG2 and CaCo2 cell lines using TRI reagent (Zymo Research) and Direct-zol™ RNA MicroPrep w/Zymo-Spin™ IIC Columns (Zymo Research, Irvine, CA, USA). After purification from genomic DNA using DNase I (Thermo Fisher Scientific, Waltham, MA, USA), 2 μg of RNA from each sample was reverse transcribed using Kit FastGene Scriptase Basic (Nippon Genetics, Mariaweilerstraße, Düren, Germany) in 20-μL of reaction volume, and 50 ng of cDNA was amplified in a 20-μL solution containing 200 nM of each primer and 10 μL of PowerUp™ SYBR™ Green Master Mix (Thermo Fisher Scientific, Waltham, MA, USA) using a Quantstudio 3 system (Applied Biosystems, Foster City, CA, USA). The relative mRNA expression was calculated according to the ΔCt method. The primer used were as follows (forward and reverse): hGapdh (for […]; rev […]), hBsep (for […]; rev […]), hOstα (for […]; rev […]), hNtcp (for […]; rev […]), hPxr (for GCAAGGGCTTTTTCAGGAG; rev GGGTCTTCCGGGTGATCT), hIl-8 (for […]; rev […]), hIl-1β (for […]; rev […]).

Row | FXR Antagonism Eff (%) (FXR) | IC50 (FXR) | half-life at 1 µM [1] | microsomal CLint at 1 µM [1] | Structure (SMILES) | Effect on proinflammatory factors caused by TNFα stimulation [2]
1 | 72% and 72 ± 6% | 4.4 ± 0.4 µM | 3.4 h | 11.3 µL/min/mg | OCc1ccc(CN2CCC(c3nc(-c4ccc5ccccc5c4)no3)CC2)cc1 [Compound 11, 5-[1-(4-(Hydroxymethyl)benzyl)piperidin-4-yl]-3-(naphthalen-2-yl)-1,2,4-oxadiazole] | reduced changes in the production of proinflammatory factors
2 | 66% and 66 ± 1% | 8.4 ± 2 µM | 1.15 h | 33.7 µL/min/mg | CCCCCN1CCC(c2nc(-c3ccc4ccccc4c3)no2)CC1 [Compound 5, 3-(Naphthalen-2-yl)-5-(1-pentylpiperidin-4-yl)-1,2,4-oxadiazole] | reduced changes in the production of proinflammatory factors
